According to PubChem BioAssay (NCI):
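48-hour exposure; five concentrations; linearly interpolated endpoints. Definition used: TGI = concentration required for complete inhibition of growth.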

Legend:
Experiment in all cases: NCI tumour cell line growth inhibition, 48 h
[1] = system: ACHN renal
[2] = system: DU-145 prostate
[3] = system: HCT-15 colon
[4] = system: HOP-92 NSCLC
[5] = system: IGROV1 ovarian
[6] = system: NCI-H23 lung
[7] = system: OVCAR-3 ovarian
[8] = system: OVCAR-4 ovarian
[9] = system: SN12C renal
[10] = system: UACC-257 melanoma
[11] = system: SF-295 CNS
[12] = system: UACC-62 melanoma
[13] = system: BT-549 breast

COC(=O)c1cccc(C)c1C1CN=NC12Cc1c(ccc(C)c1C)C2=O (stereo unspecified)
TGI [1]: > 100 µM
TGI [2]: > 100 µM
TGI [3]: > 100 µM
TGI [4]: > 100 µM
TGI [5]: > 100 µM
TGI [6]: > 100 µM
TGI [7]: > 100 µM
TGI [8]: > 100 µM
TGI [9]: > 100 µM
TGI [10]: > 100 µM

Cc1cccc(NC(=O)CSc2nnc(Cc3ccccc3)o2)c1
TGI [1]: > 100 µM
TGI [3]: > 100 µM
TGI [5]: > 100 µM
TGI [6]: > 100 µM
TGI [7]: > 100 µM
TGI [8]: > 100 µM
TGI [11]: > 100 µM
TGI [9]: > 100 µM
TGI [10]: > 100 µM
TGI [12]: > 100 µM

CC(=O)CCC(=O)CC(O)(C(F)(F)F)C(F)(F)F
TGI [1]: 42.6 µM
TGI [2]: 37.8 µM
TGI [3]: 35.4 µM
TGI [4]: 26.7 µM
TGI [5]: 31.1 µM
TGI [6]: 43.2 µM
TGI [8]: 37 µM
TGI [11]: 27.1 µM
TGI [9]: 36.5 µM
TGI [10]: 33.7 µM
TGI [12]: 32 µM

Nc1ccccc1C(=O)NNC(=O)c1ccccc1N
TGI [1]: > 100 µM
TGI [2]: > 100 µM
TGI [3]: > 100 µM
TGI [4]: > 100 µM
TGI [5]: > 100 µM
TGI [6]: > 100 µM
TGI [7]: > 100 µM
TGI [8]: > 100 µM
TGI [11]: > 100 µM
TGI [9]: > 100 µM
TGI [10]: > 100 µM
TGI [12]: > 100 µM

COCC1OCCN1C (stereo unspecified)
TGI [1]: > 100 µM
TGI [13]: > 100 µM
TGI [3]: > 100 µM
TGI [4]: > 100 µM
TGI [5]: > 100 µM
TGI [6]: > 100 µM
TGI [7]: > 100 µM
TGI [8]: > 100 µM
TGI [11]: > 100 µM
TGI [10]: > 100 µM
TGI [12]: > 100 µM

CCCCC1(OC(=O)CCC(=O)O)CCC2(CCC(C)C(C/C=C(C)/C=C/C(O)C(C)/C=C/C(=O)O)O2)OC1CC/C(C)=C/C(=O)O (stereo unspecified)
TGI [1]: 26.2 µM
TGI [3]: 12.4 µM
TGI [4]: 4.74 µM
TGI [5]: 4.89 µM
TGI [6]: 3.49 µM
TGI [7]: 11.2 µM
TGI [8]: 7.78 µM
TGI [11]: 15.8 µM
TGI [9]: 9.2 µM
TGI [10]: 2.57 µM
TGI [12]: 2.62 µM

C1=Cc2nc1c(-c1ccccc1)c1ccc([n-]1)c(-c1ccccc1)c1nc(c(-c3ccccc3)c3ccc([n-]3)c2-c2ccccc2)C=C1.[Zn+2]
TGI [1]: > 100 µM
TGI [3]: > 100 µM
TGI [4]: > 100 µM
TGI [5]: > 100 µM
TGI [6]: > 100 µM
TGI [7]: > 100 µM
TGI [8]: > 100 µM
TGI [11]: > 100 µM
TGI [9]: > 100 µM
TGI [10]: > 100 µM
TGI [12]: > 100 µM
